Reference: patent US20250242035A1, “GLYCAN CONJUGATE COMPOSITIONS AND METHODS” (GANNA BIO, INC., priority 2022, published 2025)

How the values were obtained:
[1] = target: T1, DC-SIGNR (Homo sapiens, UniProt Q9H2X3); test: In vitro glycan array protein binding, DC-SIGNR; conditions: 20 μg/mL protein, glycan printed at 100 μM
T1 construct: purchased R&D Systems 162-D2
T1 sequence (Q9H2X3 1-399): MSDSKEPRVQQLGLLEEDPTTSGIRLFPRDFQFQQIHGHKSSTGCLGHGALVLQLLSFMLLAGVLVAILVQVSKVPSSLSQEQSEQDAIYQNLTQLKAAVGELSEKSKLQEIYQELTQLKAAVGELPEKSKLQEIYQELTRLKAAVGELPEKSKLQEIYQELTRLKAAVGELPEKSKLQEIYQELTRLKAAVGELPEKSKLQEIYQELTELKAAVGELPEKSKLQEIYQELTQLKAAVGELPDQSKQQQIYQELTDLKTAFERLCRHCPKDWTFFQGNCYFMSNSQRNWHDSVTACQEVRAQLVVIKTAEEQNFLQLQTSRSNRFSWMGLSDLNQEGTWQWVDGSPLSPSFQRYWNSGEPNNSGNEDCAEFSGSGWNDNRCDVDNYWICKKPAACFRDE
Procedure: […]. Commercially available proteins tagged with human fragment crystallizable region (Fc) were used for the glycan array screening: DC-SIGNR (R&D Systems, 162-D2), Siglec7 (R&D Systems, 1138-SL), CD2 (R&D Systems, 1856-CD-050), CD83 (R&D Systems, 2044-CD), KLRF1 (R&D Systems, 1099-NK), CD28 (Sino Biological Inc., 11524-H41H).
Protein samples were prepared with 1% bovine serum albumin (BSA) in tris-sucrose-magnesium chloride (TSM) buffer with additional Ca^2+ (20 mM tris-HCl, 150 mM sodium chloride, 5 mM calcium chloride, 2 mM magnesium chloride, and 0.05% Tween 20). Proteins were incubated with the glycan array for 1 hour at room temperature at the concentrations indicated in Tables 9A-9F before being washed three times with wash buffer (20 mM tris-HCl, 150 mM sodium chloride, 5 mM calcium chloride, 2 mM magnesium chloride). The arrays were then contacted with Alexa Fluor 488-labeled goat anti-human IgG (H+L) (Invitrogen A-11013) at 5 μg/ml and measured by fluorescence detection. Values in Tables 9A-9F are reported in relative fluorescence units (RFUs).

[2] = target: T2, Siglec-7 (Homo sapiens, UniProt Q9Y286); test: In vitro glycan array protein binding, Siglec-7; conditions: 10 μg/mL protein, glycan printed at 100 μM
T2 construct: purchased R&D Systems 1138-SL

[3] = system: Natural Killer (NK) cells; test: In vitro glyco-siRNA internalization by stem loop qPCR, NK cells; assay type: cell-based
Procedure: (§1) Primary B cells, T cells and NK cells were purchased from […] Technologies Inc. Primary B, T and NK cells were plated 24 hours before the experiment at 100,000 cells per well in […] of Roswell Park Memorial Institute (RPMI) medium with 10% fetal bovine serum (FBS) in 96-well plates. Glyco-siRNAs were incubated with cells for 4 hours. After incubation, media was removed and washed three times in PBS or PBS+150 mM NaCl. […] A final concentration of 1 mM dNTP, 5 U/μl transcriptase, 0.38 U/μl Rnase inhibitor, 50 nM stem loop RT primer (IDT) against siRNA targeting beta catenin (5′-[…]-3′ (SEQ ID NO: 21)) was mixed in a 10 μl volume reaction with 1× buffer. Frozen cell lysates were thawed and heated at 95° C. for 10 minutes and 5 μl of the boiled cell lysate was added to each 10 μl of reverse transcription mix. Samples were incubated first in 16° C. for 30 minutes then 42° C. for 30 minutes followed by 85° C. for 5 minutes and the samples were ready to be used for qPCR reaction. […] 1.5 ul of cDNA template from the reverse transcription reaction is added to the qPCR mix to a final volume for 10 μl. Samples were first incubated at 95° C. for 10 minutes followed by 40 cycles of 30 seconds of 95° C. and 1 minute at 60° C. Relative enrichment of siRNA over endogenous Micro-RNAs were calculated based on the Ct value of standard curve.

[4] = system: FXII; test: Knockdown measured using plasma FXII ELISA; assay type: in vivo, mice; conditions: 10-day post dose
Procedure: Glyco-siRNA conjugates were prepared as described in Examples 6 and 7, wherein the siRNA was an HPRT1-siRNA (SEQ ID NOS: 8 and 9).
Plasma from the 10-day post dose mice was collected using EDTA tube and saved at −80° C. before analysis. The plasma FXII levels were measured using Innov-Research FXII ELISA kit (Cat. No. IMSF12KT) following the provider's instructions.

[5] = system: Primary B cells; test: In vitro glyco-siRNA internalization by stem loop qPCR, primary B cells; assay type: cell-based
Procedure: as §1

[6] = system: Primary T cells; test: In vitro glyco-siRNA internalization by stem loop qPCR, primary T cells; assay type: cell-based
Procedure: as §1

T2 sequence (Q9Y286 19-467): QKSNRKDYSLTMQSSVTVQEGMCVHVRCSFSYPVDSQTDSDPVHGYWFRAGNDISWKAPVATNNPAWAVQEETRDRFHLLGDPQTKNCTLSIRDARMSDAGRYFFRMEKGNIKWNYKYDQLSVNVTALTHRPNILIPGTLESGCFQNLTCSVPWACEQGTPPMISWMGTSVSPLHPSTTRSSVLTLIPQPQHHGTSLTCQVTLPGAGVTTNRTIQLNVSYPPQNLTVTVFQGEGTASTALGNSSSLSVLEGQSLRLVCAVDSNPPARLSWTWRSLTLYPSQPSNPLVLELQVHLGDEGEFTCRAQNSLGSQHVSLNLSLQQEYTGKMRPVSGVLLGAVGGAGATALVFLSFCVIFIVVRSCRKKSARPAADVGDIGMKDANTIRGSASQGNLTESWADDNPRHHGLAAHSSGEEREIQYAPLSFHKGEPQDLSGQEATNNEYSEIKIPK

## CC(=O)NC1C(OC2C(O)C(CO)OC(OC3C(CO)OC(O)C(O)C3O)C2O)OC(CO)C(OC2OC(CO)C(O)C(OC3OC(CO)C(OC4OC(CO)C(O)C(O)C4OC4OC(C)C(O)C(O)C4O)C(O)C3NC(C)=O)C2O)C1O (stereo not shown) [K-22, Fucα1-2Galb1-4GlcNAcb1-3Galb1-4GlcNAcb1-3Galb1-4Glc]
[1]
  Binding to DC-SIGNR (20 μg/ml)(RFU): 1047827 RFU

## CC(=O)N[C@H]1[C@H](O[C@H]2[C@@H](O)[C@@H](CO)O[C@@H](O[C@H]3[C@H](O)[C@@H](O)C(O)O[C@@H]3CO)[C@@H]2O)O[C@H](CO)[C@@H](O)[C@@H]1O (stereo partly shown) [K-23, GlcNAcb1-3Galb1-4Glc]
[1]
  Binding to DC-SIGNR (20 μg/ml)(RFU): 1047468 RFU

## CC(=O)NC1C(OCC2OC(OC3C(CO)OC(O)C(O)C3O)C(O)C(OC3OC(CO)C(O)C(O)C3NC(C)=O)C2O)OC(CO)C(O)C1O (stereo not shown) [K-27, GlcNAcb1-3(GlcNAcb1-6)Galb1-4Glc]
[1]
  Binding to DC-SIGNR (20 μg/ml)(RFU): 862190.8 RFU

## CC(=O)N[C@H]1[C@H](O[C@H]2[C@@H](O)[C@@H](CO)O[C@@H](O[C@H]3[C@H](O)[C@@H](O)C(O)O[C@@H]3CO)[C@@H]2O)O[C@H](CO)[C@@H](O[C@@H]2O[C@H](CO)[C@H](O)[C@@H](O[C@@H]3O[C@H](CO)[C@@H](O)[C@H](O)[C@H]3NC(C)=O)[C@H]2O)[C@@H]1O (stereo partly shown) [K-28, GlcNAcb1-3Galb1-4GlcNAcb1-3Galb1-4Glc]
[1]
  Binding to DC-SIGNR (20 μg/ml)(RFU): 723698.8 RFU

## CC(=O)N[C@H]1[C@H](O[C@H]2[C@@H](O)[C@@H](CO)O[C@@H](O[C@H]3[C@H](O)[C@@H](O)C(O)O[C@@H]3CO)[C@@H]2O)O[C@H](CO)[C@@H](O[C@@H]2O[C@H](CO)[C@H](O)[C@H](O)[C@H]2O)[C@@H]1O[C@@H]1O[C@@H](C)[C@@H](O)[C@@H](O)[C@@H]1O (stereo partly shown) [K-29, Galb1-4(Fucα1-3)GlcNAcb1-3Galb1-4Glc]
[1]
  Binding to DC-SIGNR (20 μg/ml)(RFU): 718967.2 RFU

## CC(=O)N[C@H]1[C@H](O[C@H]2[C@@H](O)[C@@H](CO)O[C@@H](O[C@H]3[C@H](O)[C@@H](O)C(O)O[C@@H]3CO)[C@@H]2O)O[C@H](CO)[C@@H](O[C@@H]2O[C@H](CO)[C@H](O)[C@H](O)[C@H]2O[C@@H]2O[C@@H](C)[C@@H](O)[C@@H](O)[C@@H]2O)[C@@H]1O (stereo partly shown) [K-30, Fuca1-2Galb1-4GlcNAcb1-3Galb1-4Glc]
[1]
  Binding to DC-SIGNR (20 μg/ml)(RFU): 631597 RFU

## CC(=O)N[C@H]1[C@H](O[C@H]2[C@@H](O)[C@@H](CO)O[C@@H](O[C@H]3[C@H](O)[C@@H](O)C(O)O[C@@H]3CO)[C@@H]2O)O[C@H](CO)[C@@H](O[C@@H]2O[C@H](CO)[C@H](O)[C@H](O[C@H]3O[C@H](CO)[C@H](O)[C@H](O)[C@H]3O)[C@H]2O)[C@@H]1O[C@@H]1O[C@@H](C)[C@@H](O)[C@@H](O)[C@@H]1O (stereo partly shown) [K-31, Gala1-3Galb1-4(Fuca1-3)GlcNAcb1-3Galb1-4Glc]
[1]
  Binding to DC-SIGNR (20 μg/ml)(RFU): 543554.7 RFU

## CC(=O)N[C@H]1[C@H]([C@H](O)[C@H](O)CO)O[C@@](O[C@H](CO)[C@@H](O)[C@@H]2O[C@@](O[C@H]3[C@@H](O)[C@@H](CO)O[C@@H](O[C@H]4[C@H](O)[C@@H](O)C(O)O[C@@H]4CO)[C@@H]3O)(C(=O)O)C[C@H](O)[C@H]2NC(C)=O)(C(=O)O)C[C@@H]1O (stereo partly shown) [K-51, Neu5Ac(a2-8)Neu5Ac(a2-3)Gal(b1-4)Glc]
[2]
  Binding to Siglec-7 (10 μg/ml)(RFU): 28368.5 RFU

## [N-]=[N+]=NCCO[C@@H]1O[C@H](CO)[C@@H](O)[C@H](O)[C@H]1O [X-2, 2-Azidoethyl β-D-glucopyranoside, reference compound]
[3]; Donor 1 repeat 1, NK cells incubated with glyco-siRNA for 4 hours
  NK Cell Uptake (Fold Increase vs Naked siRNA): 2.16 fold
[3]; Donor 2 repeat 2, NK cells incubated with glyco-siRNA for 4 hours
  NK Cell Uptake (Fold Increase vs Naked siRNA): 2.60 fold
[4]; 0.1 mg/kg
  Knockdown Relative to PBS Control Measured Using FXII ELISA, % of PBS Control: 83.00 % of PBS Control
[4]; 1 mg/kg
  Knockdown Relative to PBS Control Measured Using FXII ELISA, % of PBS Control: 77.24 % of PBS Control
[5]; Donor 1, 4 hours incubation
  Primary B Cell Uptake (Fold Increase vs Naked siRNA): 2.72 Fold
[5]; Donor 2, 4 hours incubation
  Primary B Cell Uptake (Fold Increase vs Naked siRNA): 2.17 Fold
[6]; Donor 1, 4 hours incubation
  Primary T Cell Uptake (Fold Increase vs Naked siRNA): 2.83 Fold
[6]; Donor 2, 4 hours incubation
  Primary T Cell Uptake (Fold Increase vs Naked siRNA): 1.68 Fold
